The target of this experiment is T1, AcrIF11Pae2 (Escherichia coli, UniProt A0AAB0B261).
T1 construct: pET28b in E. coli BL21(DE3); 13C/15N-labelled
In words: NMR chemical shift perturbation on NAD titration. The conditions noted are these: NMR structure 8DWQ is without NAD; structure sample 50 mM KPi pH 7.4, 298 K; titration conditions not stated. It is filed as binding.

The results in this text go back to PMC12421852, “AcrIF11 is a potent CRISPR-specific ADP-ribosyltransferase encoded by phage and plasmid” (mBio, 2025).

Each structure is given as a SMILES string.

T1 sequence (A0AAB0B261 entry or part of it): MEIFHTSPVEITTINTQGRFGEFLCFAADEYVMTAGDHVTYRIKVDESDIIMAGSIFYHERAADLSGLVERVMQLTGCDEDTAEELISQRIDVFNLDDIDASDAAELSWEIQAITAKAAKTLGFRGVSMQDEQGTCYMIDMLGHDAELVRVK

For `NC(=O)c1ccc[n+]([C@@H]2O[C@H](COP(=O)(O)OP(=O)(O)OC[C@H]3O[C@@H](n4cnc5c(N)ncnc54)[C@H](O)[C@@H]3O)[C@@H](O)[C@H]2O)c1` [NAD], the “NMR chemical shift perturbation on NAD titration” value is on record as “upon titration of cofactor NAD, the largest chemical shift perturbations occurred in the beta sheet region”.
